These results are taken from PMC10578927, “An unconventional gatekeeper mutation sensitizes inositol hexakisphosphate kinases to an allosteric inhibitor” (eLife, 2023).

Broadly, the Km is the concentration of substrate that gives half-maximal velocity. Broadly, the IC50 is the point on the concentration scale where inhibition reaches its midpoint.

The target of data set [1] is T1, IP6K1^wt (Homo sapiens, UniProt Q92551).
T1 construct: made in house; host or cells: E. coli Arctic Express
As to the kind of experiment: Michaelis–Menten and Lineweaver–Burk kinetics (NMR). It is filed as biochemical. How it is done:
(§1) Kinetic assays were performed in D2O in a total volume of 500 µl containing the same buffer components for IP6K and IP6KA constructs as stated for the NMR activity assays above. […] If applicable, inhibitor was added as a DMSO-d6 stock at a final DMSO concentration of 1%. Otherwise, DMSO-d6 was added to the same percentage. The samples were equilibrated at 37°C for 5 min and the reaction initiated by adding 100 µM [^13C6]-InsP6. The reaction time was adjusted so that conversion would not exceed 20% to remain in the linear range for initial velocity measurements. The reaction was quenched with 38 µl 700 mM EDTA pH* 8.0 and transferred into an NMR tube before being measured on a Bruker […] 600 PLUS with an NMR pulse program developed previously ([Harmel et al., 2019]). Initial velocities were calculated by dividing the amount of generated product by the product of reaction time in seconds and mass of the kinase in mg.

Data set [2] addresses T2, IP6K1^L210V (Homo sapiens, UniProt Q92551, L210V).
T2 construct: made in house; host or cells: E. coli Arctic Express
The data set is described as above. Conditions: Michaelis–Menten, read-out: KM for ATP. It is filed as biochemical. The procedure: as §1

In data set [3] the target is T2, IP6K1^L210V. As to the kind of experiment: NMR activity assay, [13C6]-InsP6 to 5PP-InsP5, with ATP-regenerating system. It counts as biochemical. Conditions: for inhibition of IP6K1^L210V: 10 µM concentration. An excerpt:
(§2) The gatekeeper mutants L210G and L210A of IP6K1 were generated by site-directed mutagenesis and the enzymes were recombinantly expressed, analogous to the WT kinase, as MBP-fusion proteins. To assess their catalytic activity, we used an NMR assay that harnesses fully ^13C-labeled InsP6 as a substrate and enables direct product readout of 5PP-InsP5 (Figure 2b and Figure 2—figure supplement 1; [Puschmann et al., 2019]; [Harmel et al., 2019]). […] Likewise, IP6K2 suffered a drastic decline in substrate turnover upon gatekeeper mutation to glycine (Figure 2—figure supplement 2).
(§3) The NMR assay for IP6K activity was performed similarly as described before ([Harmel et al., 2019]) with slight alterations. Enzyme assays were performed in D2O in a total volume of 150 µl containing 20 mM 4-(2-hydroxyethyl)-1-piperazineethanesulfonic acid (HEPES) pH* 6.8, 50 mM NaCl, 6 mM MgCl2, 1 mM ATP, 0.2 mg/ml BSA, 1 mM DTT, 5 mM creatine phosphate and 1 U/ml creatine kinase (ATP-regenerating system) and 50 nM kinase if not otherwise stated. HEPES, NaCl, and BSA were prepared as buffer A and DTT and creatine phosphate as buffer B in D2O and were adjusted to pH* 6.8, respectively. If applicable, inhibitor was added as a DMSO-d6 stock in a twofold dilution series at a final DMSO concentration of 1% if not otherwise mentioned. Otherwise, DMSO-d6 was added to the same percentage. The samples were equilibrated at 37°C for 3 min and the reaction initiated by adding 100 µM [^13C6]-InsP6.

In a further data set the test system is HEK293. As to the kind of experiment: Cytotoxicity, cell survival after 72 hr incubation. It counts as cell-based. Conditions: HEK293, 10 µM, 72 hr incubation. How it is done:
(§4) Supplementary file elife-88982-supp2.xlsx: Supplementary file 2. Cytotoxicity of selected hits indicated by cell survival after 72 hr incubation at 10 µM concentration. All compounds were measured in independent triplicates and errors represent standard deviation. Redox activity of selected compounds measured via a photometric surrogate assay. Reactions contained 50 mM HEPES pH 7.5, 50 mM NaCl, 200 mM DTT, and 20 µM resazurin, and were incubated for 1 hr at 37°C.

A further data set has as its system HepG2. As to the kind of experiment: Cytotoxicity, cell survival after 72 hr incubation. Conditions: HepG2, 10 µM, 72 hr incubation. It is filed as cell-based. The procedure: as §4
In data set [4] the target is T1, IP6K1^wt. Kind of data set: High-throughput screen, reverse kinase reaction (5PP-InsP5 + ADP), Kinase-Glo luminescence. It is filed as biochemical. Conditions: dose-dependent reconfirmation. For orientation: In Kinase-Glo more light means more ATP remaining.
The target in data set [5] is T2, IP6K1^L210V. The description is as above. It is filed as biochemical. An excerpt: Although the NMR assay described above provides direct product detection and the ability to distinguish the PP-InsP isomers ([Harmel et al., 2019]), it is inherently slow and thus not compatible with a high-throughput screen. The use of luminescence-based readouts of ATP consumption to measure IP6K activity is error-prone due to the kinase’s unusually low affinity for ATP, the sensitivity to the ATP/ADP ratio, and its inherent ATPase activity ([Wundenberg et al., 2014]; [Voglmaier et al., 1996]). Nevertheless, we were able to take advantage of these properties by examining the reverse reaction of IP6K1 with the Kinase-Glo assay, where 5PP-InsP5 and ADP are converted to InsP6 and ATP (Figure 3a).
The following solutions were prepared as 4× stock solutions: kinase buffer (HEPES pH 7.4, NaCl, BSA, MgCl2, Tween-20, DTT, and IP6K1^L210V), DMSO/inhibitor, ADP, and 5PP-InsP5. Final concentrations after optimization were 1 mM ADP, 20 mM HEPES, 50 mM NaCl, 0.2 mg/ml BSA, 2 mM MgCl2, 0.05% Tween-20, 1 mM DTT, 250 nM IP6K1^L210V, and 50 μM 5PP-InsP5. The reactions were carried out in 384-well plates following this procedure. 5 µl 4× kinase buffer (buffer only for no kinase controls), 5 µl 4× DMSO or inhibitor and 5 µl 4× ADP solution were subsequently added to all wells. After 10 min equilibration, 5 μl 4× 5PP-InsP5 were added to start the reaction (milli-Q water for negative controls). After 3 hr at room temperature, 20 µl of Promega Kinase-Glo Plus reagent were added and the luminescence read out with a Tecan Infinite M Plex reader using 100-ms exposure time after 10 min of equilibration.
ADP was prepared in a 2× stock solution in milli-Q water and the pH adjusted to 7.0. The following solutions were prepared as 4× stock solutions: kinase buffer (HEPES pH 7.4, NaCl, BSA, MgCl2, Tween-20, DTT, and IP6K1^L210V) and 5PP-InsP5. Final concentrations were 1 mM ADP, 20 mM HEPES, 50 mM NaCl, 0.2 mg/ml BSA, 2 mM MgCl2, 0.05% Tween-20, 1 mM DTT, 250 nM IP6K1^L210V, and 50 µM 5PP-InsP5. The reactions were carried out in 384-well plates following this procedure. 10 µl 2× ADP solution were added to all wells, then 0.2 µl DMSO or compound (1 mM in DMSO) were added followed by the addition of 5 µl 4× kinase buffer. For dose–response curves, compounds were added in serial dilution (twofold serial dilutions in DMSO across multiple plates prior to compound transfer to assay plates, 9 concentrations in total). After 10 min equilibration, 5 µl 4× 5PP-InsP5 were added to start the reaction (milli-Q water for negative controls). After 3 hr at room temperature, 20 µl of Promega Kinase-Glo Plus reagent were added and the luminescence read out with a Tecan Infinite M Plex or Perkin Elmer EnVision reader using 100ms exposure time after 10 min of equilibration. In the counter screen, dose–response curves were measured in the absence of kinase and presence of 50 µM ATP.

In data set [6] the target is T1, IP6K1^wt. As to the kind of experiment: NMR activity assay, [13C6]-InsP6 to 5PP-InsP5, with ATP-regenerating system. It is filed as biochemical.
Excerpt: as §2, §3

The subject of a further data set is IP6K. Particulars: Figure 1b; ref Padmanabhan et al., 2009 (TNP); Wormald et al., 2019 (Barrow-24); Moritoh et al., 2021; Terao et al., 2018 (SC-919); cited from earlier work.

T1 sequence (Q92551 whole entry): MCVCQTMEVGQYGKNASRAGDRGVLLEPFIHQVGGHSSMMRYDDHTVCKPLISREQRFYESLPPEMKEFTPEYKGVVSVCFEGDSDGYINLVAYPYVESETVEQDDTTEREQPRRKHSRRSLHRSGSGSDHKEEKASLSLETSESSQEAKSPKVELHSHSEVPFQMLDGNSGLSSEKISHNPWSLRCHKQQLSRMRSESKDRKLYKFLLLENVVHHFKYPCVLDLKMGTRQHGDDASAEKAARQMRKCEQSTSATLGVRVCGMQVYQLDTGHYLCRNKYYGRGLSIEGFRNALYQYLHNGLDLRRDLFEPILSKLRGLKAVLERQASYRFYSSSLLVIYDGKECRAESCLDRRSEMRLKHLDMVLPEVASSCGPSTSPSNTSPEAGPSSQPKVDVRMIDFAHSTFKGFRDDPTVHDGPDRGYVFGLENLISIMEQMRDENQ
T2 sequence (Q92551 whole entry L210V): as the sequence (Q92551 whole entry) above, with L210V counted along it

On to `Nc1ncnc2c1ncn2[C@@H]1O[C@H](COP(=O)(O)OP(=O)(O)OP(=O)(O)O)[C@@H](O)[C@H]1O` [ATP], for which the Km is 186 ± 23 µM on IP6K1^wt [1] (Michaelis–Menten, read-out: KM for ATP) and 412 ± 81 µM on IP6K1^L210V [2].
As for `O=C1c2ccccc2C(=O)N1c1ccc(-c2nc3ccc(N4C(=O)c5ccccc5C4=O)cc3[nH]2)cc1` [A1], the “inhibition of IP6K1^L210V” value at IP6K1^L210V [3] (NMR assay) was “completely inactive”.
Consider `O=c1c(O)c(-c2ccc(O)c(O)c2)oc2cc(O)cc(O)c12` [compound 405356, quercetin, reference compound], for which the results for the “Cell number (%)” value in the data set on HEK293 and with HepG2 were 104.0 ± 1.4% and 65.9 ± 16.9%, respectively. Further, the half-inhibitory concentration (IC50) is 12100 nM on IP6K1^wt [4] and 2860 nM at IP6K1^L210V [5] (Kinase-Glo, reverse reaction, dose-dependent reconfirmation). On IP6K1^L210V [5] (primary screen, IP6K1^L210V), the Z-score is listed as -14.6. Besides, the “%Activity” value at IP6K1^L210V [5] (primary screen, residual activity of IP6K1^L210V) was 7.8%.
Regarding `O=C(O)c1ccc2c(c1)C(=O)N(c1ccc(-c3nc4ccccc4[nH]3)cc1)C2=O` [A2], the “inhibition of IP6K1^L210V” value against IP6K1^L210V [3] (NMR assay) is recorded as “inhibited IP6K1^L210V, albeit with severely reduced potency”.
Take `Cn1c(=O)n(-c2ccc(C(C)(C)C#N)cc2)c2c3cc(-c4cnc5ccccc5c4)ccc3ncc21` [BEZ235, reference compound]: the “inhibitory activity against IP6K1^wt” value against IP6K1^wt [6] (10 µM concentration) is given as “none of these compounds exhibited any inhibitory activity”. Besides, the “inhibition of IP6K1^L210V” value against IP6K1^L210V [3] (NMR assay) is given as “inhibition of IP6K1^L210V was not observed either”.
In the case of `O=[N+]([O-])c1ccc(CNc2nc(NCc3cccc(C(F)(F)F)c3)nc3[nH]cnc23)cc1` [TNP, N2-(m-trifluorobenzyl)-N6-(p-nitrobenzyl)purine, reference compound], the “mechanism of inhibition (Lineweaver–Burk)” value on IP6K1^wt [1] (versus ATP) was “competitive mechanism of action”. Further, the IC50 at IP6K1^wt [6] (Figure 4—figure supplement 2b) is 2150 nM; against IP6K1^L210V [3] (NMR assay, Figure 4—figure supplement 2b), 1410 nM; in the data set with IP6K it was 470 nM. In addition, the “difference in potency against IP6K1^wt and IP6K1^L210V” value on IP6K1^L210V [3] (NMR IC50 curves) is “no significant difference in potency”.
